Experimental data reported in ChEMBL document CHEMBL4402595, “Discovery of Orally Bioavailable Chromone Derivatives as Potent and Selective BRD4 Inhibitors: Scaffold Hopping, Optimization, and Pharmacological Evaluation” (J Med Chem, 2020).
The source made the active and inactive calls. The rule behind the calls is not given here.

How the values were obtained:
[1] = Clearance in mouse liver microsomes; format: ADME, Microsome
CYP1A2 = molecular target: T1, CYP1A2 (Homo sapiens, UniProt P05177); assay: Inhibition of CYP1A2 (unknown origin) at 10 uM relative to control; format: ADME
T1 sequence (P05177 whole entry): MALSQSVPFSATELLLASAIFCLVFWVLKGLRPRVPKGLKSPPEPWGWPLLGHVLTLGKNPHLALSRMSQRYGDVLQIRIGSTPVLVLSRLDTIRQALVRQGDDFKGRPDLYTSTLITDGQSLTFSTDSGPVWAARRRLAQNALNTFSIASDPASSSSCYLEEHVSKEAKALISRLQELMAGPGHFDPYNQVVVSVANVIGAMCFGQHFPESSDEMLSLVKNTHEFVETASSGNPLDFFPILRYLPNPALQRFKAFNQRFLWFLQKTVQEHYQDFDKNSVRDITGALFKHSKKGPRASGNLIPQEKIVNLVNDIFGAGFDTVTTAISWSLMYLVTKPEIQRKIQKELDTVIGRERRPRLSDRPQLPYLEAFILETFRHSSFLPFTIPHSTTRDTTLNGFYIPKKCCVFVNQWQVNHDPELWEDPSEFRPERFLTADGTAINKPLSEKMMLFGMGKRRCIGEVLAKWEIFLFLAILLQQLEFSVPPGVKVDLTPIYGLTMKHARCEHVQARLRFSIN

CYP2C19 = CYP2C19 (Homo sapiens, UniProt P33261); assay: Inhibition of CYP2C19 (unknown origin) at 10 uM relative to control; format: ADME
[2] = molecular target: T2, Bromodomain-containing protein 4 (Homo sapiens, UniProt O60885); assay: Inhibition of BRD4 in poly(I:C)-stimulated human SAECs assessed as reduction in H3K122Ac levels at 10 uM pre-incubated for 24 hrs before poly(I:C) stimulation for 4 hrs by immunofluorescence staining
[3] = molecular target: T2, Bromodomain-containing protein 4; assay: Inhibition of BRD4 in poly(I:C)-stimulated human SAECs TLR3-inducible IL-6 gene expression pre-incubated for 24 hrs before poly(I:C) stimulation for 4 hrs by qRT-PCR analysis

Sequence of CYP2C19 (P33261 whole entry): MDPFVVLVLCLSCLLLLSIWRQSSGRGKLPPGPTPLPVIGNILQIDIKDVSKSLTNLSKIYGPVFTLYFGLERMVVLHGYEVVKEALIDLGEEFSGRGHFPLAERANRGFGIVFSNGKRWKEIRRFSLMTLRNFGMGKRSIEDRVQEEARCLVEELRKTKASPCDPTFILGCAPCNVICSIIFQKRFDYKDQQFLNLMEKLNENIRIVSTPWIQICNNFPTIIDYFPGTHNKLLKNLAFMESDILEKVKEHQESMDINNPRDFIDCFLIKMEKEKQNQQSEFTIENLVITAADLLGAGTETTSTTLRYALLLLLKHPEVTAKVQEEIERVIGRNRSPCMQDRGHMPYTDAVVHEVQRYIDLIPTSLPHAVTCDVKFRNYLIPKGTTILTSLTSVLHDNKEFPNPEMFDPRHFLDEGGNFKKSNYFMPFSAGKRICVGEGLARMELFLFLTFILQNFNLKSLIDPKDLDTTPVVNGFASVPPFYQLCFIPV

CLH [1] | inhibition at 10 µM (CYP1A2) | inhibition at 10 µM (CYP2C19) | inhibition [2] | IC50 [3] | Compound
25 µL/min/mg | 0% | 1.7% |  |  | COc1cc(OC)c2c(=O)cc(-c3cc(C)c(OC[C@H](O)CN4CCN(C)CC4)c(C)c3)oc2c1
 |  |  | Active | 1.1 µM | COc1cc(OC)c2c(=O)cc(-c3cc(C)c(OC[C@H](O)CN4CCCCC4)c(C)c3)oc2c1
